Measured values as given in article PMC4310329, “The length of a lantibiotic hinge region has profound influence on antimicrobial activity and host specificity” (Frontiers in Microbiology, 2015).

Tests used:
S. aureus = experiment: Agar well diffusion assay; type: cell-based, Staphylococcus aureus; settings: 20 °C; estimated from halo diameter by nisin standard curve, relative to wt
Method: (§1) L. lactis strains were cultured in M17 broth supplemented with 0.5% (w/v) glucose (GM17) or GM17 agar for genetic manipulation or in minimal expression medium (MEM) for protein expression at 30°C (Rink et al., [2005]). E. faecalis, S. aureus, S. pneumonia, and L. monocytogenes were grown in GM17 at 37°C or GM17 agar at different temperatures for agar diffusion assay. M. luteus was grown in Luria-Bertani broth shaken (200 rpm) at 30°C or LB agar at 20°C for agar diffusion assay. Bacillus strains were cultured in Brain Heart Infusion (BHI) shaken (200 rpm) or BHI agar at different temperatures for agar diffusion assay.
(§2) For the agar well diffusion assay, the same cultures as in the MIC value test were used and diluted 200 times with solid media. Identical sizes of wells (7.5 mm diameter) were made and 2 μg of hinge region analogs dissolved in 20 μl 0.05% acetic acid were added. The plates were incubated at different temperatures for at least 1 day until apparent halos appeared. For activity test at low temperature, the indicators were diluted in the same way but poured into smaller plates (52 mm diameter). The plates were incubated at 4°C overnight before the peptides were added. B. sporothermodurans IC4 and B. cereus 4153 were first incubated with the peptides at 4°C for 2 weeks then moved to 30°C and incubated overnight. The diameters of the halos were measured.
(§3) The antimicrobial activity of the hinge region analogs in solid media were tested by an agar well diffusion assay. The diameters of the halos were measured and the residual activity of the analogs were estimated according to the formula of the relationship between the concentration of nisin and the sizes of halos. We made use of the fact that the size of the halo is directly related to the log of nisin concentration. Of course this is an estimate of activity of the variants because any changes in diffusion of the variant bacteriocin or growth rates of indicator bacteria during the assay could also affect the size of the halo. (Table 5 and Supplementary Figure 1). The plates were shown in supplementary data (Supplementary Figures 2–8). […] And against L. lactis at 20°C, the inhibition zone was larger than nisin. […] The M. luteus grows quite fast at room temperature and only the +2 variant retained 55% of the activity of nisin. […]
(§4) To evaluate the activity of nisin on the agar plate, an agar well diffusion assay with gradient of nisin against Lactococcus lactis ( with two plasmids) was performed ( Supplementary Figur e 1 A). The diameter of the halos were measured (Supplementary Figure 1B). […]
(§5) the concentration of nisin is in liner relationship with diameter of the halos ( Supplementary Fi g u re 1C). According to the formula (1) , the relative activity of the peptides compared to nisin can be calculated b y the formula ( 2) .
(§6) Supplementary Figure 1. Relationship between concentration of nisin and diameter of the halos. (A) Agar well diffusion assay. Gradient concentration of nisin were made and dissolved in 30µl 0.05% acetic acid. Lactococcus lactis ( with two plasmids) was cultured overnight and diluted 250 times with GM17 agar before added to the plate. The final concentration of the cells was about 2×10^6 cells/milliliter. The plate was incubated for 1 da y. Concentrations of nisin were labeled. (B) log10 of the concentrati ons and diameters of the halo. (C) A linear curve w as made betw een t he diameters of the halo and log10s of the concentration of nisin. […]

E. faecalis VE14089 = experiment: Agar well diffusion assay; type: cell-based, Enterococcus faecalis; settings: estimated from halo diameter by nisin standard curve, relative to wt
Method: as §1, §2, §3, §4, §5
(§7) Supplementary Figure 1. Relationship between concentration of nisin and diameter of the halos. (A) Agar well diffusion assay. Gradient concentration of nisin were made and dissolved in 30µl 0.05% acetic acid. Lactococcus lactis ( with two plasmids) was cultured overnight and diluted 250 times with GM17 agar before added to the plate. The final concentration of the cells was about 2×10^6 cells/milliliter. The plate was incubated for 1 da y. Concentrations of nisin were labeled. (B) log10 of the concentrati ons and diameters of the halo. (C) A linear curve w as made betw een t he diameters of the halo and log10s of the concentration of nisin.
(§8) (1 picture or pasted object on this page, not shown here)
(§9) Last Name a uthor 1 et al. Running Title
(§10) C = concentration of nisin d° = diameter of the halo of wild t ype […]

L. lactis MG1363 = experiment: Agar well diffusion assay; type: cell-based, Lactococcus lactis; settings: relative to wt
Method: as §1, §2, §3, §4, §5, §7, §8, §9, §10

M. luteus = experiment: Agar well diffusion assay; type: cell-based, Micrococcus luteus; settings: 20 °C; estimated from halo diameter by nisin standard curve, relative to wt
Method: as §1, §2, §3, §4, §5, §6

Bacillus cereus 4147 = experiment: MIC in liquid culture; type: cell-based; settings: MIC value of nisin divided by that of the analog
Method: as §1
(§11) The indicator strains were cultured until OD (600 nm) reached 0.5. Before MIC value test, the culture was diluted 1000 times to make the concentration of cells around 5 × 10^5 per milliliter. The test was performed using a temperature controlled plate reader [Tecan200 (Tecan Group AG)] and 96 well plate (Greiner Bio-one). 180 μl indicator strain culture mixed with 20 μl hinge region analogs with final concentration from 0.031 μg/ml–32 μg/ml was incubated at 30°C or 37°C for 18 h. OD (600 nm) was checked every 30 min. For aerobic strains, 2 min of shaking was performed before every check. The concentration of peptide without observed growth of indicator strains was considered as the MIC value.

Staphylococcus aureus = experiment: MIC in liquid culture; type: cell-based; settings: MIC value of nisin divided by that of the analog
Method: as §1, §11

Listeria monocytogenes = experiment: MIC in liquid culture; type: cell-based; settings: MIC value of nisin divided by that of the analog
Method: as §1, §11

[1] = tested on: Lactococcus lactis MG1363; experiment: MIC in liquid culture; type: cell-based; settings: MIC value of nisin divided by that of the analog
Method: as §1, §11

Micrococcus luteus = experiment: MIC in liquid culture; type: cell-based; settings: MIC value of nisin divided by that of the analog
Method: as §1, §11

[2] = tested on: Streptococcus pneumoniae R6; experiment: MIC in liquid culture; type: cell-based; settings: MIC value of nisin divided by that of the analog
Method: as §1, §11

[3] = tested on: Bacillus cereus (L′29) 16; experiment: MIC in liquid culture; type: cell-based; settings: MIC value of nisin divided by that of the analog
Method: as §1, §11

Bacillus cereus 4153 = experiment: MIC in liquid culture; type: cell-based; settings: MIC value of nisin divided by that of the analog
Method: as §1, §11

L. monocytogenes = experiment: Agar well diffusion assay; type: cell-based, Listeria monocytogenes; settings: estimated from halo diameter by nisin standard curve, relative to wt
Method: as §1, §2, §3, §4, §5, §7, §8, §9, §10

[4] = tested on: Enterococcus faecalis VE14089; experiment: MIC in liquid culture; type: cell-based; settings: MIC value of nisin divided by that of the analog
Method: as §1, §11

[5] = tested on: Bacillus sporothermodurans IC4; experiment: MIC in liquid culture; type: cell-based; settings: MIC value of nisin divided by that of the analog
Method: as §1, §11

B. sporothermodurans IC4 = experiment: Agar well diffusion assay; type: cell-based, Bacillus sporothermodurans; settings: 30 °C; estimated from halo diameter by nisin standard curve, relative to wt
Method: as §1
as §2, with “B. sporothermodurans IC4 and B. cereus 4153 were first incubated with the peptides at 4°C for 2 weeks then moved to 30°C and incubated overnight.” left out
The antimicrobial activity of the hinge region analogs in solid media were tested by an agar well diffusion assay. The diameters of the halos were measured and the residual activity of the analogs were estimated according to the formula of the relationship between the concentration of nisin and the sizes of halos. […]
as §4
the concentration of nisin is in liner relationship with diameter of the halos ( Supplementary Fi g u re 1C). According to the formula (1) , the relative activity of the peptides compared to nisin can be calculated b y the formula ( 2) . […]

[6] = 20 °C, estimated from halo diameter by nisin standard curve (halo diameter vs log of nisin concentration)
[7] = 30 °C, estimated from halo diameter by nisin standard curve

| Compound | Residual activity (S. aureus) [%] | Residual activity (E. faecalis VE14089; 20 °C) [%] | Residual activity (E. faecalis VE14089; 37 °C) [%] | Residual activity (L. lactis MG1363; [6]) [%] | Residual activity (M. luteus) [%] | Residual activity of variants compared to nisin (Bacillus cereus 4147) [%] | Residual activity of variants compared to nisin (Staphylococcus aureus) [%] | Residual activity of variants compared to nisin (Listeria monocytogenes) [%] | Residual activity of variants compared to nisin [1] [%] | Residual activity of variants compared to nisin (Micrococcus luteus) [%] | Residual activity of variants compared to nisin [2] [%] | Residual activity of variants compared to nisin [3] [%] | Residual activity of variants compared to nisin (Bacillus cereus 4153) [%] | Residual activity (L. monocytogenes; 20 °C) [%] | Residual activity (E. faecalis VE14089; 30 °C) [%] | Residual activity (L. lactis MG1363; [7]) [%] | Residual activity of variants compared to nisin [4] [%] | Residual activity of variants compared to nisin [5] [%] | Residual activity (B. sporothermodurans IC4) [%] | Residual activity (L. monocytogenes; 30 °C) [%] |
| --- | --- | --- | --- | --- | --- | --- | --- | --- | --- | --- | --- | --- | --- | --- | --- | --- | --- | --- | --- | --- |
| C=C(NC(=O)[C@@H](NC(=O)[C@H](Cc1c[nH]cn1)NC(=O)[C@@H](NC(=O)[C@H](CO)NC(=O)[C@@H]1CS[C@@H](C)[C@H]2NC(=O)[C@H](C)NC(=O)[C@H](NC(=O)[C@H](CCCCN)NC(=O)[C@H](CCSC)NC(=O)[C@H](CC(C)C)NC(=O)[C@H](CC(N)=O)NC(=O)[C@@H]3CS[C@@H](C)[C@@H](NC(=O)[C@H](CCCCN)NC(=O)[C@@H]4CS[C@@H](C)[C@@H](NC(=O)[C@@H]5CSC[C@@H](NC(=O)/C(=C/C)NC(=O)[C@@H](N)[C@@H](C)CC)C(=O)N[C@@H]([C@@H](C)CC)C(=O)NC(=C)C(=O)N[C@@H](CC(C)C)C(=O)N5)C(=O)N5CCC[C@H]5C(=O)NCC(=O)N4)C(=O)NCC(=O)N[C@@H](C)C(=O)N[C@@H](CC(C)C)C(=O)N[C@@H](CCSC)C(=O)NCC(=O)N3)[C@H](C)SC[C@H](NC2=O)C(=O)N[C@@H](Cc2c[nH]cn2)C(=O)N1)[C@@H](C)CC)C(C)C)C(=O)N[C@@H](CCCCN)C(=O)O [+1] | 27 | 72 | 82 | 122 | 9 | 25 | 6 | 25 | 25 | 25 | 17 | 25 | 25 | 72 | – | – | – | – | – | – |
| C=C(NC(=O)[C@@H](NC(=O)[C@H](Cc1c[nH]cn1)NC(=O)[C@@H](NC(=O)[C@H](CO)NC(=O)[C@@H]1CS[C@@H](C)[C@H]2NC(=O)[C@H](C)NC(=O)[C@H](NC(=O)[C@H](CCCCN)NC(=O)[C@H](CCSC)NC(=O)[C@H](CC(C)C)NC(=O)[C@@H](NC(=O)[C@@H](NC(=O)[C@H](CC(N)=O)NC(=O)[C@@H]3CS[C@@H](C)[C@@H](NC(=O)[C@H](CCCCN)NC(=O)[C@@H]4CS[C@@H](C)[C@@H](NC(=O)[C@@H]5CSC[C@@H](NC(=O)/C(=C/C)NC(=O)[C@@H](N)[C@@H](C)CC)C(=O)N[C@@H]([C@@H](C)CC)C(=O)NC(=C)C(=O)N[C@@H](CC(C)C)C(=O)N5)C(=O)N5CCC[C@H]5C(=O)NCC(=O)N4)C(=O)NCC(=O)N[C@@H](C)C(=O)N[C@@H](CC(C)C)C(=O)N[C@@H](CCSC)C(=O)NCC(=O)N3)[C@@H](C)CC)C(C)C)[C@H](C)SC[C@H](NC2=O)C(=O)N[C@@H](Cc2c[nH]cn2)C(=O)N1)[C@@H](C)CC)C(C)C)C(=O)N[C@@H](CCCCN)C(=O)O [+3] | 0 | 6 | 14 | 5 | 7 | 25 | <3 | <25 | 13 | 25 | 13 | 13 | 13 | 3 | 9 | 3 | <21 | 17 | 10 | 3 |
| C=C(NC(=O)[C@@H](NC(=O)[C@H](Cc1c[nH]cn1)NC(=O)[C@@H](NC(=O)[C@H](CO)NC(=O)[C@@H]1CS[C@@H](C)[C@H]2NC(=O)[C@H](C)NC(=O)[C@H](NC(=O)[C@H](CC(N)=O)NC(=O)[C@@H]3CS[C@@H](C)[C@@H](NC(=O)[C@H](CCCCN)NC(=O)[C@@H]4CS[C@@H](C)[C@@H](NC(=O)[C@@H]5CSC[C@@H](NC(=O)/C(=C/C)NC(=O)[C@@H](N)[C@@H](C)CC)C(=O)N[C@@H]([C@@H](C)CC)C(=O)NC(=C)C(=O)N[C@@H](CC(C)C)C(=O)N5)C(=O)N5CCC[C@H]5C(=O)NCC(=O)N4)C(=O)NCC(=O)N[C@@H](C)C(=O)N[C@@H](CC(C)C)C(=O)N[C@@H](CCSC)C(=O)NCC(=O)N3)[C@H](C)SC[C@H](NC2=O)C(=O)N[C@@H](Cc2c[nH]cn2)C(=O)N1)[C@@H](C)CC)C(C)C)C(=O)N[C@@H](CCCCN)C(=O)O [−2] | 16 | 36 | 76 | 120 | 0 | <13 | <3 | <25 | 6 | <25 | 13 | <13 | <13 | 82 | 77 | 91 | <6 | 13 | – | 76 |
